Here are results for five compounds from US20080280920A1, “Plasminogen Activator Inhibitor-1 Inhibitors” (priority 2005, published 2008).

Broadly, the GI50 is the concentration at which growth is held to half of that of the control. As a reminder, the TGI is the concentration at which net growth stops. Read a low TGI as greater sensitivity of the cells. Usually LC50 stands for the concentration lethal to half of the exposed cells or organisms. Lower therefore signals greater toxicity.

Type in all cases: cell-based, human
For one experiment, the system named is CCRF-CEM. The experiment is described as follows: NCI anticancer screen, CCRF-CEM. The conditions noted are these: Leukemia, 48 h.
For a further experiment, the system named is NCI-H23. Kind of experiment: NCI anticancer screen, NCI-H23. The conditions noted are these: NCI-H23, Non-Small Cell Lung, 48 h; for GI50 / CC50: Homo sapiens; for CC50: read-out: LC50 (the source's name).
The test system of the next experiment is HOP-62. Kind of experiment: NCI anticancer screen, HOP-62. The conditions noted are these: HOP-62, Non-Small Cell Lung, 48 h.
A further experiment has as its system RPMI-8226. The experiment is described as follows: NCI anticancer screen, RPMI-8226. The conditions noted are these: RPMI-8226, Leukemia, 48 h.
Where [1] appears, read: Homo sapiens, read-out: LC50 (the source's name).

As for `CCOC(=O)c1ccc(CNCc2cc(CN3CCN(c4ccccn4)CC3)c(O)c(OC)c2)cc1` [Compound Q012135T], the GI50 in the experiment with CCRF-CEM (Homo sapiens) stood at 14.1 µM; in the experiment with NCI-H23, 34.2 µM; in the experiment with HOP-62 (Homo sapiens) it was 20.6 µM; in the experiment on RPMI-8226 (Homo sapiens), 7.14 µM. The values for the CC50 in the experiment with CCRF-CEM (setting [1]), with NCI-H23 and in the experiment with RPMI-8226 (setting [1]) were 14.1 µM, > 100 µM and 7.14 µM, respectively. In addition, the TGI in the experiment on CCRF-CEM was 48.4 µM; in the experiment on NCI-H23, >100 µM; in the experiment on HOP-62, 43.9 µM; with RPMI-8226, 24.5 µM. In the experiment on HOP-62 (Homo sapiens), the LC50 turned out to be 93.8 µM.
Compound `CCOC(=O)[C@H](Cc1ccccc1)NCc1cc(CN2CCN(c3ccccn3)CC2)c(O)c(OC)c1` [Compound Q012147T] gave a GI50 in the experiment with NCI-H23 of 55.9 µM.
On to `CC(C)(C)OC(=O)Nc1ccc(O)c(C(=O)NCCOC(=O)NCCNC(=O)c2cc(OCc3ccccc3)ccc2OCc2ccccc2)c1` [Compound Q012052, 2-[5-(BOC-amino)-2-hydroxybenzoylamino]ethyl 2-[2,5-bis-(benzyl-oxy)benzoylamino]ethylcarbamate], for which the GI50 was > 100 µM in the experiment with CCRF-CEM (Homo sapiens), > 100 µM in the experiment on NCI-H23, > 100 µM in the experiment with HOP-62 (Homo sapiens) and 7.58 µM in the experiment with RPMI-8226 (Homo sapiens).
On to `COc1cc(CNc2ccc(C(=O)OC(C)(C)C)cc2)cc(CN2CCN(c3ccccn3)CC2)c1O` [Compound Q012145T], for which the GI50 with NCI-H23 came to 51.6 µM.
As for `COc1cc(CNCC2CCN(C(=O)OC(C)(C)C)CC2)cc(CN2CCN(c3ccccn3)CC2)c1O` [Compound Q012132, 2-Methoxy-4-({[(N-t-butyloxycarbonylpiperidin-4-yl)methyl]amino}methyl)-6-[(4-pyridin-2-ylpiperazin-1-yl)methyl]phenol], in the experiment with NCI-H23, the GI50 is 29.6 µM, the CC50 was > 100 µM and the TGI is >100 µM.
